Assay results published in patent publication EP0830136B1, “NEW CRY[…] […]” (priority 1995, dated 1996).
Entries after “also recorded” stand apart in the source; their conditions may differ.

Key:
KB = experiment: In vitro cytotoxicity, KB cell line; assay type: cell-based, human; conditions: read-out: RB IC50
LoVo = experiment: In vitro cytotoxicity, LoVo cell line; assay type: cell-based, human
[1] = Methanolysis (solvolysis) of the C-D ester bond; assay type: physicochemical; conditions: methanol used in the isolation scheme
Colon 38 = conditions: Exp # 1560; SC Tumor Colon 38; 8 Inj. IV; 10.3 mg/kg Total Dose
Colon 51 = conditions: Exp # 1636; SC Tumor Colon 51; 7 Inj. IV; 28.1 mg/kg Total Dose
Mam 16/C = conditions: Exp # 1720; SC Tumor Mam 16/C; 5 Inj. IV; 13.2 mg/kg Total Dose
Mam 16/Taxol = conditions: Exp # 1733; SC Tumor Mam 16/Taxol; 5 Inj. IV; 16.5 mg/kg Total Dose
Experimental: (§1) Gross log kill is defined as T-C/3.2 Td where T is the median time in days for the tumors of the treated group to reach 750mg, C is the median time in days for the tumors of the control group to reach 750mg, and Td is the tumor volume doubling time (T.H. Corbett et al., Cytotoxic Anticancer Drugs: Models and Concepts for Drug Discovery and Development, pp 35-87; Kluwer: Norwell, 1992).

M17/0 (Adr. Sens.) = conditions: Exp # 1833; SC Tumor M17/0 (Adr. Sens.); 5 Inj. IV; 5.4 mg/kg Total Dose
Experimental: as §1

[2] = tested on: Human Sm Cell L. DMS273 SCID; conditions: Exp # 1596; SC Tumor Human Sm Cell L. DMS273 SCID; 6 Inj. IV; 7.3 mg/kg Total Dose
Experimental: as §1

MX-1 Human Breast = conditions: Exp # 1806; SC Tumor MX-1 Human Breast; 8 Inj. IV; 12 mg/kg Total Dose
Experimental: as §1

H125 Human Adenosq-lung = conditions: Exp # 1823; SC Tumor H125 Human Adenosq-lung; 8 Inj. IV; 14.4 mg/kg Total Dose
Experimental: as §1

LNCaP Human Prostate = conditions: Exp # 1841; SC Tumor LNCaP Human Prostate; 6 Inj. IV; 6.5 mg/kg Total Dose
Experimental: as §1

tumors implanted in mice = conditions: for total dosage required in vivo relative to comparator: mouse; for in vivo antitumor activity: statement in words
physchem = conditions: aqueous base, pH 11
[3] = tested on: human tumor cell lines KB and LoVo; experiment: In vitro cytotoxicity, KB and LoVo; conditions: read-out: cytotoxicities IC50's
[4] = pH 11 / hydrolysis
Colon 26 = experiment: In vivo activity, Colon 26 experiment; parameters: species or system mice
Experimental: as §1

SKOV3 cells = experiment: Cell proliferation assay (SRB staining), SKOV3; assay type: cell-based, Human; conditions: 24 hours with IC50 doses
SKVLB1 cells = experiment: cells; assay type: cell-based; conditions: Homo sapiens, SKVLB1, 48 h, read-out: SKVLB1 IC50 (nM)
Experimental: The Jurkat T cell leukemia line and A-10 rat aortic smooth muscle cells were obtained from the American Type Culture Collection and were cultured in BME containing 10% FBS and 50µg/mL gentamycin sulfate. […] Both cell lines were maintained in BME containing 10% FBS and 50µg/mL gentamycin sulfate.
Cell proliferation assays were performed as described by Skehan et al.^11 For Jurkat cells, cultures were treated with the indicated drugs as described in Skehan^11 and total cell numbers were determined by counting the cells in a hemacytometer. The percentage of cells in mitosis was determined by staining with 0.4% Giemsa in PBS followed by three rapid washes with PBS. At least 1000 cells per treatment were scored for the presence of mitotic figures and the mitotic index was calculated as the ratio of cells with mitotic figures to the total number of cells counted.

[5] = tested on: A-10 rat aortic smooth muscle cells; experiment: Immunofluorescence of cytoskeleton in A-10 cells; assay type: cell-based
Experimental: A-10 cells were grown to near-confluency on glass coverslips in BME/10% FBS. Compounds in PBS were added to the indicated final concentrations and cells were incubated for an additional 24 hours. For the staining of microtubules and intermediate filaments, the cells were fixed with cold methanol and incubated with PBS containing 10% calf serum to block nonspecific binding sites. Cells were then incubated at 37°C for 60 min with either monoclonal anti-β-tubulin or with monoclonal anti-vimentin at dilutions recommended by the manufacturer. Bound primary antibodies were subsequently visualized by a 45-minute incubation with fluorescein-conjugated rabbit antimouse IgG. The coverslips were mounted on microscope slides and the fluorescence patterns were examined and photographed using a Zeiss Photomicroscope ill equipped with epifluorescence optics for fluorescein. […] PBS containing 100nM TRITC-phalloidin was then added and the mixture was allowed to incubate for 45 min at 37° C. The cells were washed rapidly three times with PBS before the coverslips were mounted and immediately photographed as described above.

[6] = tested on: Jurkat T cell leukemia line; experiment: Jurkat cell proliferation and mitotic index; assay type: cell-based; conditions: Homo sapiens; Jurkat cells, 24 hours; read-out: IC50s for inhibition of cell proliferation and accumulation of cells in mitosis
[7] = summary over trials, partly worded 'mostly'
[8] = A-10 cells, 24 hours, 2µM cytochalasin B, 100nM vinblastine or 10nM cryptophycin compounds

SMILES: COc1ccc(C[C@H]2NC(=O)/C=C/C[C@@H]([C@H](C)[C@H]3O[C@@H]3c3ccccc3)OC(=O)[C@H](CC(C)C)OC(=O)[C@H](C)CNC2=O)cc1Cl [Cryptophycin 1]
- IC50 (KB): 0.0092 nM
- IC50 (LoVo): 0.0104 nM
- methanolysis of the C-D ester bond [1]: considerable methanolysis
- % Body Wt. Loss at Nadir (Colon 38): Gain
- Cures (Colon 38): 0/5
- Log Kill (Colon 38): 1.5
- T/C (Colon 38): 6%
- % Body Wt. Loss at Nadir (Colon 51): -11%
- Cures (Colon 51): 0/5
- Log Kill (Colon 51): 1.3
- T/C (Colon 51): 7%
- % Body Wt. Loss at Nadir (Mam 16/C): -1%
- Cures (Mam 16/C): 0/5
- Log Kill (Mam 16/C): 1.4
- T/C (Mam 16/C): 5%
- % Body Wt. Loss at Nadir (Mam 16/Taxol): 0%
- Cures (Mam 16/Taxol): 0/5
- Log Kill (Mam 16/Taxol): 1.8
- T/C (Mam 16/Taxol): 2%
- % Body Wt. Loss at Nadir (M17/0 (Adr. Sens.)): -10%
- Cures (M17/0 (Adr. Sens.)): 0/5
- Log Kill (M17/0 (Adr. Sens.)): <1
- T/C (M17/0 (Adr. Sens.)): 23%
- % Body Wt. Loss at Nadir [2]: 0%
- Cures [2]: 0/5
- Log Kill [2]: <1
- T/C [2]: 27%
- % Body Wt. Loss at Nadir (MX-1 Human Breast): -3%
- Cures (MX-1 Human Breast): 0/5
- Log Kill (MX-1 Human Breast): 2.0
- T/C (MX-1 Human Breast): 3%
- % Body Wt. Loss at Nadir (H125 Human Adenosq-lung): -15%
- Cures (H125 Human Adenosq-lung): 0/5
- Log Kill (H125 Human Adenosq-lung): 1.1
- T/C (H125 Human Adenosq-lung): 9%
- dead (H125 Human Adenosq-lung): 1/5
- % Body Wt. Loss at Nadir (LNCaP Human Prostate): -6%
- Cures (LNCaP Human Prostate): 0/5
- Log Kill (LNCaP Human Prostate): <1
- T/C (LNCaP Human Prostate): 26%
- toxicity in animals (tumors implanted in mice; compared with Cryptophycin 8): appreciable toxicity
- T/C values (tumors implanted in mice; [7]): > 0%
- gross log kill values (tumors implanted in mice; [7]): < 2.0
- half-life (physchem): 49.8 min
- IC50 [3]: 0.009 to 0.029 nM

SMILES: COc1ccc(C[C@H]2NC(=O)/C=C/C[C@@H]([C@H](C)[C@H]3O[C@@H]3c3ccccc3)OC(=O)[C@H](CC(C)C)OC(=O)C(C)(C)CNC2=O)cc1Cl [Cryptophycin 52]
- stability of the C-D ester bond [4]: stable at pH 11
- total dosage required in vivo relative to comparator (tumors implanted in mice): roughly three times the total dosage compared with Cryptophycin 1
- in vivo antitumor activity (tumors implanted in mice): active in vivo
- IC50 [3]: 0.043 to 0.07 nM

SMILES: COc1ccc(C[C@H]2NC(=O)/C=C/C[C@@H]([C@H](C)[C@@H](O)[C@@H](Cl)c3ccccc3)OC(=O)[C@H](CC(C)C)OC(=O)C(C)(C)CNC2=O)cc1Cl [Cryptophycin 55]
- gross log kill value (Colon 26): 1.2
- total dosage required in vivo relative to comparator (tumors implanted in mice): three times the total dosage compared with Cryptophycin 8
- in vivo antitumor activity (tumors implanted in mice): active in vivo
- IC50 [3]: 0.033 to 0.047 nM

SMILES: CC(=O)O[C@H]1C(=O)[C@@]2(C)[C@H]([C@H](OC(=O)c3ccccc3)[C@]3(O)C[C@H](OC(=O)[C@H](O)[C@@H](NC(=O)c4ccccc4)c4ccccc4)C(C)=C1C3(C)C)[C@]1(OC(C)=O)CO[C@@H]1C[C@@H]2O [taxol]
- increase in cell number during treatment (SKOV3 cells): 25%
- IC50 (SKVLB1 cells): 8000 nM
- microtubule organization in taxol-treated cells ([5]; A-10 cells, 10µM taxol): extensively bundled

SMILES: CC[C@]1(O)C[C@@H]2CN(CCc3c([nH]c4ccccc34)[C@@](C(=O)OC)(c3cc4c(cc3OC)N(C)[C@H]3[C@@](O)(C(=O)OC)[C@H](OC(C)=O)[C@]5(CC)C=CCN6CC[C@]43[C@@H]65)C2)C1 [vinblastine]
- increase in cell number during treatment (SKOV3 cells): 25%
- increase in cell numbers in the 24 hours following removal of the drug (SKOV3 cells; then drug-free medium): approximately 3 fold
- IC50 (SKVLB1 cells): 4200 nM
- IC50 [6]: 8 nM
- microtubule depolymerization after taxol pretreatment [5]: pretreatment with taxol prevented microtubule depolymerization
- microtubule repolymerization 1 hour after removal of drug ([5]; A-10 cells, 100nM vinblastine or 10nM cryptophycins for 24 hr, then drug-free medium 1 hour): significant levels of microtubules
- microtubule repolymerization 24 hours after removal of drug ([5]; A-10 cells, 100nM vinblastine or 10nM cryptophycins for 24 hr, then drug-free medium 24 hours): complete morphological recovery
- effect on microfilaments [5, 8]: Neither compound affected microfilawent organization
- effect on microtubules [5, 8]: marked depletion of microtubules; also recorded: complete depolymerization of microtubules; also recorded: complete microtubule depolymerization
- effect on vimentin intermediate filaments [5, 8]: collapsed, forming concentric rings around the nuclei
